{"source": "patent EP4696306A1", "about": "“ADENOSINE TRIPHOSPHATE SECRETION INHIBITOR, HEPATIC STELLATE CELL ACTIVATION INHIBITOR, HEPATIC STELLATE CELL DEACTIVATOR, HEPATIC FIBROSIS THERAPEUTIC AGENT, NON-ALCOHOLIC STEATOHEPATITIS THERAPEUTIC AGENT, PSORIASIS THERAPEUTIC AGENT, AND USE OF COMPOUND FOR PRODUCING ADENOSINE TRIPHOSPHATE …” (KURUME UNIVERSITY, priority 2023, dated 2024)", "key": {"[1]": {"target": "T1, V-ATPase (Bos taurus, UniProt P31404)", "T1 construct": "from tissue; host or cells: bovine adrenal medulla chromaffin granule membranes", "T1 sequence (P31404 whole entry, looked up)": "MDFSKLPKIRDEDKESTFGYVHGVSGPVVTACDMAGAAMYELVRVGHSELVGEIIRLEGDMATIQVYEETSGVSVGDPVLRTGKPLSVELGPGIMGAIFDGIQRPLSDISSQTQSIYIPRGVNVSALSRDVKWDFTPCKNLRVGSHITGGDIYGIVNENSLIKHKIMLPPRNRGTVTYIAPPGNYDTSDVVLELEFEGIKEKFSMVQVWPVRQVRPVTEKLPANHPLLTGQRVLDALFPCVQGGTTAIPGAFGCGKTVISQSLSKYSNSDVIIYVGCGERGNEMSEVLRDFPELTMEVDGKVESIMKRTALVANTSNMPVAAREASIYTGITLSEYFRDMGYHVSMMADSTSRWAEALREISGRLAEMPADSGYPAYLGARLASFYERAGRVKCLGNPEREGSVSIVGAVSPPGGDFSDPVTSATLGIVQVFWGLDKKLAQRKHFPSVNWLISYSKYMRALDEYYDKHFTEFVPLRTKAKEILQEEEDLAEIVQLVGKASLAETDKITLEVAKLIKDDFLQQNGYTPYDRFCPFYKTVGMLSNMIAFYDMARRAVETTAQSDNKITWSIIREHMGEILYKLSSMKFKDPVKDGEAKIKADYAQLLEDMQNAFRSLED", "assay": "ATP-dependent proton transport by V-ATPase (acridine orange / oxonol-V fluorescence quenching)", "type": "biochemical, bovine", "method": "(§1) Chromaffin granule membranes were prepared from adrenal glands collected from slaughtered cattle according to Reference A (Nathan Nelson et al., 1988, Chromaffin Granule Proton Pump, Methods in Enzymology, 157, 619-633). Chromaffin granule membranes prepared by sucrose density gradient centrifugation were suspended in 2 ml of SME buffer (20 mM MOPS-tris (pH 7.0), 0.3 M sucrose, 5 mM EDTA, 10 µg/ml leupeptin, and 10 µg/ml pepstatin) + 25% glycerol, and the resulting suspension was aliquoted and stored at -80°C. Under these conditions, the ATP transport activity, the V-ATPase activity, and the catecholamine transport activity remain fully active for at least one year.\nATP-dependent proton transport by V-ATPase was measured according to Reference B. Proton transport activity was measured using a spectrofluorometer at excitation wavelength of 492 nm and a fluorescence wavelength 540 nm, wherein fluorescence quenching of acridine orange was used as an index (N = 2). The transmembrane potential generated was measured using a spectrofluorometer at an excitation wavelength of 580 nm and a fluorescence wavelength of 630 nm, wherein fluorescence quenching of oxonol-V was used as an index (N = 2). The acridine measurement liquid (2 ml) contained 20 mM MOPS-tris (pH 7.0), 0.2 M sucrose, 0.1 M potassium chloride, 5 mM magnesium acetate, 0.2 µg valinomycin, 2 µM acridine orange, and about 20 µg of chromaffin granules. The oxonol-V measurement liquid (2 ml) contained 20 mM MOPS-tris (pH 7.0), 0.3 M sucrose, 5 mM magnesium acetate, 5 µM oxonol-V, and about 20 µg of chromaffin granules.\n(§2) Chromaffin granule membrane vesicles were prepared in the same manner as in Example 5, and uptake of radiolabeled ATP into the vesicles was measured. Transport activity of catecholamine (dopamine) and ATP-dependent proton transport by V-ATPase were also measured in the same manner as in Example 5."}, "[2]": {"test_system": "catecholamine transport", "assay": "Catecholamine (3H-dopamine) transport in chromaffin granule membranes", "type": "biochemical, bovine", "method": "as §1\nA catecholamine transport inhibition experiment was carried out in the same manner as the ATP transport experiment except that the experiment used a measurement liquid containing 20 mM MOPS-tris (pH 7.0), 0.1 M sucrose, 0.1 M potassium chloride, 5 mM magnesium acetate, and about 5 µg of chromaffin granule membranes. To 0.5 ml of the measurement liquid, 2 mM ATP was added, and the resulting mixture was incubated at 30°C for about 5 minutes, followed by addition of^3 [H]-dopamine thereto to a final concentration of 10 µM. After further incubation at 30°C for 15 minutes, 0.2 ml of the reaction liquid was subjected to suction filtration through a Millipore MCE membrane filter with a pore size of 0.45 µm, and the radioactivity on the filter was measured (N = 3). The substrate, ^3[H]-dopamine, was prepared by mixing 3,4-[RING-2,5,6-^3H]dihydroxyphenylethylamine (dopamine) (30 Ci/mmol) (manufactured by New England Nuclear) with dopamine hydrochloride (manufactured by LKT Laboratories) such that a final concentration of 0.1 mM was achieved during the use.\nas §2"}, "[3]": {"test_system": "MCD diet-induced NASH", "details": "administration of clodronate; Non Patent Literature 4; cited from earlier work"}, "[4]": {"test_system": "ATP-loaded vesicles", "assay": "MANT-ATP accumulation in ATP-loaded granules of keratinocytes (confocal microscopy)", "type": "cell-based, human", "details": "10 µM imeglimin, 19 hours; 0.3 mM MANT-ATP", "method": "Keratinocytes were cultured in the same manner as in Example 8. Keratinocytes were cultured at 4 × 10^4 cells/ml in a glass-bottom dish (35 mm, manufactured by Matsunami Glass Ind., Ltd.) at 37°C in 5% CO2 for 2 days. The culture medium was then replaced with a medium supplemented with MANT-ATP (manufactured by Invitrogen) at a final concentration of 0.3 mM, and further incubation was performed for 4.5 hours. Subsequently, imeglimin was added thereto to a final concentration of 10 µM, and further incubation was performed at 37°C in 5% CO2 for 19 hours. Thereafter, the cells were washed twice with HBSS (manufactured by Gibco) and observed using an inverted confocal laser microscope (FV-1000 OSR, manufactured by Olympus Corporation)."}, "[5]": {"test_system": "human epidermal keratinocytes", "assay": "Imiquimod-induced ATP secretion in keratinocytes", "type": "cell-based", "details": "18 hours incubation, imiquimod 15 minutes, N = 8", "method": "In the same manner as in Example 1, keratinocytes were cultured at 2.5×10^4 cells/well in a 24-well plate at 37°C in 5% CO2 for 4 days. The medium was replaced with HBSS (manufactured by Gibco) supplemented with 1 µM or 10 µM imeglimin, and incubation was performed at 37°C in 5% CO2 for 18 hours. Thereafter, imiquimod was added thereto at 1 µg/ml or 0.5 µg/ml, and incubation was performed for 15 minutes, followed by collection of 200 µl of the supernatant. The supernatant was immediately treated on a heat block at 95°C for 10 minutes, and ATP in the supernatant was quantified using a ATP Assay Kit - Luminescence (manufactured by Dojindo) (N = 8)."}, "[6]": {"target": "V-ATPase (Homo sapiens, UniProt P38606)", "sequence (P38606 whole entry)": "as the sequence (P31404 whole entry, looked up) above, with R10L, V131I, N157S, I199V, S204T, E576D, V590L, A599S counted along it", "assay": "Inhibitory effect on V-ATPase (data not shown)", "type": "biochemical"}, "[7]": {"details": "concentrations of up to 5 mM, data not shown"}}, "data": [{"smiles": "C=C(OP(=O)(O)O)C(=O)O", "note": "[PEP, phosphoenolpyruvic acid]", "values": [{"measurement": "quenching of oxonol-V fluorescence (transmembrane potential)", "setting": "[1]; addition of 5 mM PEP, ATP alone quenched by 40%, N = 2", "value": "did not change the level of quenching"}, {"measurement": "quenching of acridine orange fluorescence (proton transport)", "setting": "[1]; addition of 5 mM PEP, ATP alone quenched by 62%, N = 2", "value": "did not change the level of quenching"}, {"measurement": "inhibition of V-ATPase", "setting": "[1]; [7]", "value": "did not inhibit"}, {"measurement": "inhibition of catecholamine transport", "setting": "[2]; [7]", "value": "did not inhibit"}, {"measurement": "ATP-dependent dopamine transport activity", "setting": "[2]; in the presence of 5 mM PEP, control 11.07 ± 0.129, N = 3", "value": "12.41 ± 0.250", "unit": "nmol/mg protein"}]}, {"smiles": "O=P(O)(O)C(Cl)(Cl)P(=O)(O)O", "note": "[clodronate]", "values": [{"measurement": "NASH activity score, inflammatory cell infiltration, and hepatic fibrosis", "setting": "[3]", "value": "improves the NASH activity score, inflammatory cell infiltration, and hepatic fibrosis"}]}, {"smiles": "C[C@H]1N=C(N(C)C)N=C(N)N1", "note": "[imeglimin]", "values": [{"measurement": "accumulation of MANT-ATP in granules", "setting": "[4]", "value": "this accumulation was absent"}, {"measurement": "ATP secretion promoted by imiquimod", "setting": "[5]; 1 µM imeglimin", "value": "strongly inhibited"}, {"measurement": "ATP secretion promoted by imiquimod", "setting": "[5]; 10 µM imeglimin", "value": "strongly inhibited"}, {"measurement": "inhibitory effect on V-ATPase", "setting": "[6]", "value": "neither imeglimin nor metformin exhibited a strong inhibitory effect"}]}]}
